Consider 48 compounds from patent US7244692B2, “Substituted benzoylcyclohexane diones for use as herbicides” (Bayer Aktiengesellschaft, priority 1999, dated 2007).

A short description of series [1]: logP determination by HPLC, reverse-phase column (C 18), EEC Directive 79/831 Annex V.A8. In kind it is physicochemical. As for the experimental part:
Temperature: 43° C. • (a) Mobile phases for the determination in the acidic range: 0.1% aqueous phosphoric acid, acetonitrile; linear gradient from 10% acetonitrile to 90% acetonitrile—the corresponding test results in Table 1 are labelled ^a). • (b) Mobile phases for the determination in the neutral range: 0.01 molar aqueous phosphate buffer solution, acetonitrile; linear gradient from 10% acetonitrile to 90% acetonitrile—the corresponding test results in Table 1 are labelled ^b).

For series [2], the system named is weeds. The experiment in a line: Post-Emergence Test (Example B). It counts as in vivo. Conditions: test plants of 5-15 cm sprayed, rated after three weeks. As for the experimental part: (§1) • Solvent: 5 parts by weight of acetone • Emulsifier: 1 part by weight of alkylaryl polyglycol ether
(§2) To produce a suitable preparation of active compound, 1 part by weight of active compound is mixed with the stated amount of solvent, the stated amount of emulsifier is added and the concentrate is diluted with water to the desired concentration.
Test plants of a height of 5-15 cm are sprayed with the preparation of active compound such that the particular amounts of active compound desired are applied per unit area. The concentration of the spray liquor is chosen such that the particular amounts of active compound desired are applied in 1000 l of water/ha.
After three weeks, the degree of damage to the plants is rated in % damage in comparison to the development of the untreated control.
The figures denote: • 0%=no effect (like untreated control) • 100%=total destruction

In series [3] the test system is weeds. Nature of the series: Pre-Emergence Test (Example A). It counts as in vivo. Conditions: soil sprayed 24 hours after sowing, rated after three weeks. As for the experimental part: as §1, §2
Seeds of the test plants are sown in normal soil. After 24 hours, the soil is sprayed with the preparation of active compound such that the particular amount of active compound desired is applied per unit area. The concentration of active compound in the spray liquor is chosen such that the particular amount of active compound desired is applied in 1000 litres of water per hectare.
After three weeks, the degree of damage to the plants is rated in % damage in comparison to the development of the untreated control. The figures denote: • 0%=no effect (like untreated control) • 100%=total destruction

[4] abbreviates: labelled a): acidic range, 0.1% aqueous phosphoric acid/acetonitrile, linear gradient 10% to 90% acetonitrile, 43° C.
[5] abbreviates: no a)/b) label printed, mobile phase not given.

Molecules are shown by their SMILES. Like-named read-outs stand apart in the source and are kept apart here.

With `CCCN1CCNC1=O` [(VI-5)], in series [1], the logP is recorded as 0.55^a).

As to `CCCN1CCCNC1=O` [(VI-15)], in series [1], the logP result is “logP = 0.76^a)”.

In the case of `CCN1CCCCNC1=O` [(VI-30)], in series [1], the logP result is “logP = 1.09”.

`CN1CCN(Cc2c(Cl)ccc(C(=O)C3C(=O)CCCC3=O)c2Cl)C1=O` [Example 1, 2-[2,4-dichloro-3-[(3-methyl-2-oxo-imidazolidin-1-yl)-methyl]-benzoyl]-1,3-cyclohexanedione]: the “activity against weeds (degree of damage)” value (from here on “activity against weeds”) with weeds [2] and with weeds [3] was “strong activity against weeds” each time.

For `CC1CC(=O)C(C(=O)c2ccc(Cl)c(CN3CCCN(C)C3=O)c2Cl)C(=O)C1` (stereo not shown) [Example 2], the “activity against weeds” value in the series with weeds [2] and with weeds [3] was “strong activity against weeds” in each case. Further, the logP result in series [1] (setting [4]) is given as “logP = 2.55^a)”.

On to `CN1CCCN(Cc2c(Cl)ccc(C(=O)C3C(=O)CC(C)(C)CC3=O)c2Cl)C1=O` [Example 3], for which the “activity against weeds” value with weeds [2] and in the series with weeds [3] was “strong activity against weeds” throughout. Besides, in series [1] (setting [4]), the logP result is “logP = 2.79^a)”.

`CN1CCCN(Cc2c(Cl)ccc(C(=O)C3C(=O)CCC(C)(C)C3=O)c2Cl)C1=O` (stereo not shown) [Example 4]: the “activity against weeds” value in the series on weeds [2] and with weeds [3] was “strong activity against weeds” each time. Besides, the logP result in series [1] (setting [4]) is “logP = 2.89^a)”.

For the compound `CC(C)C1CC(=O)C(C(=O)c2ccc(Cl)c(CN3CCCN(C)C3=O)c2Cl)C(=O)C1` (stereo not shown) [Example 5], in the series with weeds [2], the “activity against weeds” value was “strong activity against weeds”. Besides, the logP result in series [1] (setting [4]) is listed as “logP = 3.22^a)”.

With `CN1CCCN(Cc2c(Cl)ccc(C(=O)C3C(=O)CC(c4ccccc4)CC3=O)c2Cl)C1=O` (stereo not shown) [Example 6], the “activity against weeds” value with weeds [2] is given as “strong activity against weeds”. Moreover, the logP entry in series [1] (setting [4]) is on record as “logP = 3.21^a)”.

As to `CC1CC(=O)C(C(=O)c2ccc(Cl)c(CN3CCN(C)C3=O)c2Cl)C(=O)C1` (stereo not shown) [Example 7], the “activity against weeds” value with weeds [2] and with weeds [3] was “strong activity against weeds” throughout. Moreover, the logP result in series [1] (setting [4]) is recorded as “logP = 2.43^a)”.

For the compound `CN1CCN(Cc2c(Cl)ccc(C(=O)C3C(=O)CC(C)(C)CC3=O)c2Cl)C1=O` [Example 8], the “activity against weeds” value in the series on weeds [2] and in the series on weeds [3] was “strong activity against weeds” throughout. Also, in series [1] (setting [4]), the logP entry is reported as “logP = 2.67^a)”.

Regarding `CN1CCN(Cc2c(Cl)ccc(C(=O)C3C(=O)CCC(C)(C)C3=O)c2Cl)C1=O` (stereo not shown) [Example 9], the “activity against weeds” value in the series on weeds [2] and in the series on weeds [3] was “strong activity against weeds” each time. For the same compound, the logP result in series [1] (setting [4]) is reported as “logP = 2.75^a)”.

Consider `CC(C)C1CC(=O)C(C(=O)c2ccc(Cl)c(CN3CCN(C)C3=O)c2Cl)C(=O)C1` (stereo not shown) [Example 10], for which the “activity against weeds” value with weeds [2] is listed as “strong activity against weeds”. Moreover, the logP result in series [1] (setting [4]) was “logP = 3.09^a)”.

Turning to `CN1CCN(Cc2c(Cl)ccc(C(=O)C3C(=O)CC(c4ccccc4)CC3=O)c2Cl)C1=O` (stereo not shown) [Example 11], in the series on weeds [2], the “activity against weeds” value is “strong activity against weeds”. In addition, in series [1] (setting [4]), the logP result is reported as “logP = 3.10^a)”.

Consider `CCN1CCN(Cc2c(Cl)ccc(C(=O)C3C(=O)CC(C)CC3=O)c2Cl)C1=O` (stereo not shown) [Example 12], for which the “activity against weeds” value with weeds [2] and in the series with weeds [3] was “strong activity against weeds” throughout. The logP entry in series [1] (setting [4]) is reported as “logP = 2.71^a)”.

Turning to `CCN1CCN(Cc2c(Cl)ccc(C(=O)C3C(=O)CCCC3=O)c2Cl)C1=O` [Example 13], the “activity against weeds” value with weeds [2] and in the series with weeds [3] was “strong activity against weeds” throughout. For the same compound, the logP entry in series [1] (setting [4]) was “logP = 2.37^a)”.

In the case of `CCN1CCN(Cc2c(Cl)ccc(C(=O)C3C(=O)CC(C)(C)CC3=O)c2Cl)C1=O` [Example 14], the “activity against weeds” value with weeds [2] is “strong activity against weeds”. Further, in series [1] (setting [4]), the logP result is “logP = 2.96^a)”.

Regarding `CCN1CCN(Cc2c(Cl)ccc(C(=O)C3C(=O)CCC(C)(C)C3=O)c2Cl)C1=O` (stereo not shown) [Example 15], in series [1], the logP entry is given as “logP = 3.07^a)”.

Consider `CCN1CCN(Cc2c(Cl)ccc(C(=O)C3C(=O)CC(C(C)C)CC3=O)c2Cl)C1=O` (stereo not shown) [Example 16], for which the “activity against weeds” value with weeds [2] is reported as “strong activity against weeds”. Also, in series [1] (setting [4]), the logP result is listed as “logP = 3.40^a)”.

`CCN1CCN(Cc2c(Cl)ccc(C(=O)C3C(=O)CC(c4ccccc4)CC3=O)c2Cl)C1=O` (stereo not shown) [Example 17]: the “activity against weeds” value in the series on weeds [2] is recorded as “strong activity against weeds”. For the same compound, the logP result in series [1] (setting [4]) is reported as “logP = 3.38^a)”.

On to `COc1c(C(=O)C2C(=O)CCCC2=O)ccc(Cl)c1CN1CCCN(C)C1=O` [Example 18], for which the “activity against weeds” value in the series on weeds [2] and in the series with weeds [3] was “strong activity against weeds” throughout. The logP result in series [1] (setting [4]) is “logP = 2.05^a)”.

On to `COc1c(C(=O)C2C(=O)CCCC2=O)ccc(Cl)c1CN1CCN(C)C1=O` [Example 19], for which, in series [1], the logP entry is “logP = 2.00^a)”.

For the compound `CN1CCN(Cc2c(Cl)ccc(C(=O)C3C(=O)CC4(CCC4)CC3=O)c2Cl)C1=O` [Example 20], the logP entry in series [1] was “logP = 2.83^a)”.

With `CCN1CCN(Cc2c(Cl)ccc(C(=O)C3C(=O)CC4(CCC4)CC3=O)c2Cl)C1=O` [Example 21], the logP entry in series [1] was “logP = 3.15^a)”.

Consider `CN1CCN(Cc2c(S(C)(=O)=O)ccc(C(=O)C3C(=O)CCCC3=O)c2Cl)C1=O` [Example 22], for which, in series [1], the logP result is “logP = 1.70^a)”.

In the case of `CCN1CCN(Cc2c(S(C)(=O)=O)ccc(C(=O)C3C(=O)CCCC3=O)c2Cl)C1=O` [Example 23], the logP entry in series [1] was “logP = 1.91^a)”.

Consider `CN1CCN(Cc2c(F)ccc(C(=O)C3C(=O)CCCC3=O)c2Cl)C1=O` [Example 24], for which the “activity against weeds” value in the series on weeds [2] and in the series on weeds [3] was “strong activity against weeds” in each case. The logP result in series [1] (setting [4]) is “logP = 1.96^a)”.

With `CCN1CCN(Cc2cc(C(F)(F)F)ccc2C(=O)C2C(=O)CCCC2=O)C1=O` [Example 25], the logP result in series [1] is listed as “logP = 2.68^a)”.

Turning to `CN1CCCN(Cc2c(S(C)(=O)=O)ccc(C(=O)C3C(=O)CCCC3=O)c2Cl)C1=O` [Example 41], in series [1], the logP entry is reported as “logP = 1.73^a)”.

In the case of `CCCN1CCN(Cc2c(Cl)ccc(C(=O)C3C(=O)CCCC3=O)c2Cl)C1=O` [Example 46], in series [1], the logP entry is “logP = 2.69^a)”.

Take `CCCCN1CCN(Cc2c(Cl)ccc(C(=O)C3C(=O)CCCC3=O)c2Cl)C1=O` [Example 47]: the logP entry in series [1] is given as “logP = 3.08^a)”.

As to `CC(C)CN1CCN(Cc2c(Cl)ccc(C(=O)C3C(=O)CCCC3=O)c2Cl)C1=O` [Example 48], in series [1], the logP entry is on record as “logP = 3.03^a)”.

On to `CN1CCCN(Cc2cc(C(F)(F)F)ccc2C(=O)C2C(=O)CCCC2=O)C1=O` [Example 49], for which, in series [1], the logP result is listed as “logP = 2.59^a)”.

Turning to `CCN1CCN(Cc2c(F)ccc(C(=O)C3C(=O)CCCC3=O)c2Cl)C1=O` [Example 50], the logP entry in series [1] was “logP = 2.18^a)”.

Consider `CN1CCN(Cc2cc(C(F)(F)F)ccc2C(=O)C2C(=O)CCCC2=O)C1=O` [Example 51], for which the logP entry in series [1] was “logP = 2.41^a)”.

For `CCN1CCN(Cc2c(Cl)ccc(C(=O)OC)c2Cl)C1=O` [IV-2], the logP result in series [1] (setting [4]) is listed as “logP = 2.26^a)”.

As to `CCN1CCN(Cc2c(S(C)(=O)=O)ccc(C(=O)OC)c2Cl)C1=O` [IV-3], in series [1] (setting [4]), the logP result is reported as “logP = 1.55^a)”.

In the case of `COC(=O)c1ccc(S(C)(=O)=O)c(CN2CCN(C)C2=O)c1Cl` [IV-4], in series [1] (setting [4]), the logP result is listed as “logP = 1.55^a)”.

On to `COC(=O)c1ccc(Cl)c(CN2CCN(C)C2=O)c1OC` [IV-5], for which the logP result in series [1] (setting [4]) is recorded as “logP = 1.92^a)”.

For `COC(=O)c1ccc(Cl)c(CN2CCCN(C)C2=O)c1Cl` [IV-6], in series [1] (setting [4]), the logP entry is “logP = 2.07^a)”.

As to `COC(=O)c1ccc(Cl)c(CN2CCCN(C)C2=O)c1OC` [IV-10], in series [1] (setting [4]), the logP entry is given as “logP = 2.03^a)”.

With `CCN1CCN(Cc2cc(C(F)(F)F)ccc2C(=O)OC)C1=O` [IV-11], the logP entry in series [1] (setting [4]) is “logP = 2.62^a)”.

Consider `CCCN1CCN(Cc2c(Cl)ccc(C(=O)OC)c2Cl)C1=O` [IV-12], for which the logP result in series [1] (setting [5]) is “logP = 2.62”.

`COC(=O)c1ccc(Cl)c(CN2CCN(C(C)C)C2=O)c1Cl` [IV-13]: the logP entry in series [1] (setting [5]) is reported as “logP = 2.56”.

As for `CCCCN1CCN(Cc2c(Cl)ccc(C(=O)OC)c2Cl)C1=O` [IV-15], the logP result in series [1] (setting [5]) is “logP = 3.0”.

Take `COC(=O)c1ccc(Cl)c(CN2CCN(CC(C)C)C2=O)c1Cl` [IV-16]: in series [1] (setting [5]), the logP result was “logP = 2.95”.

On to `COC(=O)c1ccc(S(C)(=O)=O)c(CBr)c1Cl` [V-2], for which the logP entry in series [1] is reported as “logP = 2.33^a)”.

On to `COC(=O)c1ccc(S(C)(=O)=O)cc1CBr` [V-6], for which, in series [1], the logP entry was “logP = 1.87^a)”.
